Test: Accumulation of metals in liver and kidney tissues, intraperitoneal administration to intact rats
Type: in vivo, rat
Description: Animals are placed in cages, 4 per cage, with free access to food/water. […] After the last injection, a half of the animals are maintained on hunger (for 12 hours) with free access to water. Upon expiration of this time period, the animals are taken out of the experiment. The second half of the animals continues to have free access to food/water for a further 7 days. On day 6 after the last injection, the animals are maintained on hunger (for 12 hours) with free access to water. Upon expiration of this time period, the animals are taken out of the experiment.
The total kidney, liver and muscle homogenates were prepared as follows. Organ excision and homogenization were carried out at a temperature of 1-4° C. […] The volume of the used buffer in ml was 5 times larger than the mass of isolated organs in grams. The isolated liver was perfused with chilled saline (0.9% NaCl) via the portal vein using a syringe. The minced liver was transferred to a homogenizer with a finely ground Teflon pestle and homogenized in chilled buffer. An isolated pair of kidneys was perfused with chilled saline, released from adipose tissue and minced with scissors. The minced tissue was transferred to a homogenizer with a finely ground Teflon pestle and homogenized in chilled buffer. The total kidney and liver homogenates were centrifuged at 600 g for 15 minutes. […]

With `CC(=O)[O-].CC(=O)[O-].[Zn+2]` [Zn acetate, Zinc acetate] the “Zinc in the kidney and liver tissues” value (day 1 and day 7 after discontinuation of the substances) was “significantly increased” and the “All other analyzed metals (manganese and copper) in kidney and liver tissues” value (intact rats, intraperitoneal) was “within the same concentrations as in the control group”.

— patent publication US11596650B2, “Composition and method for the treatment of type 2 diabetes” (Vector Vitale IP LLC, priority 2019, dated 2023)
